Consider 2 compounds from patent US4521418A, “Guanidinothiazolyl derivatives” (Smith Kline & French Laboratories Limited, priority 1979, dated 1985).

This assay has as its system histamine H2 -receptors. The assay is described as follows: inhibition of histamine-stimulated secretion of gastric acid from Heidenhain pouch dogs. It is filed as in vivo. The note with it: Heidenhain pouch dog, 0.25 micromol kg^-1 i.v. On the procedure: Heidenhain pouch dogs are prepared by the following procedure. The abdomen of a male beagle (14-16 kg) is opened and the stomach is exteriorized. Blood vessels are ligated and cut at two places on the greater curvature to enable a piece of the fundus of the stomach to be cut away from the main stomach to form the pouch. The incision lines are sewn together to enable normal digestion. A stainless steel cannula is inserted into the pouch and the end not in the pouch is exteriorized through a stab wound in the abdominal wall to allow drainage of gastric juice under gravity. Finally, the abdomen is closed by a continuous suture. The dogs are ready for experimental use approximately three weeks after operation. The compounds of the invention are tested in Heidenhain pouch dogs by the following procedure. The dogs are starved for approximately 20 hours prior to the experiment and are then placed in Pavlov stands. A polythene cannula is placed in a leg vein and saline is infused for about one hour. A check is made that there is no basal acid secretion. Histamine (20 micromoles/hour) or pentagastrin (8 micrograms/kg/hour) is continuously infused in place of the saline. A plateau of acid secretion is reached after 11/2 to 2 hours and the test compound is administered intravenously or orally (contained within a hard gelatin capsule). Gastric juice is collected by drainage under gravity into perspex tubes attached to the gastric cannula. Normally samples are collected over fifteen minute periods. The volumes of the samples are measured and aliquots are titrated to pH 7.4 with 0.1N sodium hydroxide. Acid secretion is expressed as the product of the volume and acid concentration.

Regarding `N=C(N)Nc1nc(CSCCNc2ncc(Cc3cccnc3)c(=O)[nH]2)cs1` [Example 1, 2-[2-(2-guanidino-4-thiazolylmethylthio)ethylamino]-5-(3-pyridylmethyl)-4-pyrimidone], the duration of action result is “extended duration of action” and the “mean peak inhibition of histamine-stimulated gastric acid secretion” value was “over 50%”.
As for `Cc1ccc(Cc2cnc(NCCSCc3csc(NC(=N)N)n3)[nH]c2=O)cn1` [Example 3, 2-[2-(2-guanidino-4-thiazolylmethylthio)ethylamino]-5-(6-methyl-3-pyridylmethyl)-4-pyrimidone], the duration of action result was “extended duration of action” and the “mean peak inhibition of histamine-stimulated gastric acid secretion” value is listed as “over 50%”.
